Reference: patent US9023811B2, “Method for treating a cardiovascular disease, hypercholesterolemia or hypertension or improving serum cholesterol levels by administering broccoli with a high level of glusosinolates” (Plant Bioscience Limited, priority 2009, dated 2015)
Read-outs that look alike come from different tables or passages of the source.

Tests used:
bovine insulin = target: T1, bovine insulin (Bos taurus, UniProt P01317); assay: Incubation of peptides with isothiocyanates, LC-MS/MS; type: binding; conditions: PBS pH 7.4 at 37° C., 0.5 to 24 hours
T1 construct: m/z 325.2 corresponds to Phe-SF, the N-terminal amino acid of insulin B chain; m/z 235.0 corresponds to Gly-SF, the N-terminal amino acid of insulin A chain; purchased Sigma-Aldrich
T1 sequence (P01317 25-54 limits assumed): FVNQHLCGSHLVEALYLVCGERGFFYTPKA
T1 sequence (P01317 85-105 limits assumed): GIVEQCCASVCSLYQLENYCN
Protocol: (§1) Incubations of SF or IB with bovine insulin (P01308, Sigma-Aldrich), recombinant human epidermal growth factor (EGF, P01133, R&D Systems, http://www.rndsystems.com/) and recombinant human transforming growth factor beta 1 (TGFβ1, P01137, R&D Systems) were performed in sodium phosphate-buffered saline solution (pH 7.4) or human blood plasma at 37° C. for 0.5-24 h. Plasma was pre-treated by ultrafiltration to remove high molecular weight proteins (Microcon Ultracel YM-30 filter, MWCO 30,000). Samples were either analyzed directly by LC-MS/MS or by LC-MS/MS analysis of tryptic digests of gel electrophoresis bands.
(§2) The LC system used was a Shimadzu series LOAD VP (Shimadzu). The column was an ACE 300 C18, 150×2.1 mm (5 μm particle size) used at 40° C. Mobile phase A was 0.1% formic acid in water, mobile phase B, 0.1% formic acid in acetonitrile and the flow rate was 0.25 ml/min. A linear gradient was used from 25% B to 35% B over 0 to 5 min, then a further gradient from 35% B to 99% B over 6 min followed by 99% B for 4 min. The column was re-equilibrated for a total of 3 min. The injection volume was between 5-20 μl. […] The peak-width was set on Q1 and Q3 at 1.0 Th (measured at half height) for all MS and MS/MS experiments. […]

[1] = target: T2, recombinant human transforming growth factor beta 1 (TGFβ1) (Homo sapiens, UniProt P01137); assay: as above; type: binding; conditions: PBS pH 7.4 at 37° C., 0.5 to 24 hours
T2 construct: TGFβ1 was robustly identified in bands of 25 kDa corresponding to the active dimer; The N-terminal peptide […] was identified; purchased R&D Systems
T2 sequence (P01137 279-390 limits assumed): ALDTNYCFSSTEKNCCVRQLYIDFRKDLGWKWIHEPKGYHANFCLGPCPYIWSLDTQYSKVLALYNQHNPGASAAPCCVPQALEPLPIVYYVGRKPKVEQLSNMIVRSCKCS
Protocol: as §1, §2

[2] = target: T3, recombinant human epidermal growth factor (EGF) (Homo sapiens, UniProt P01133); assay: as above; type: binding; conditions: PBS pH 7.4 at 37° C., 0.5 to 24 hours
T3 construct: addition of SF to the N-terminal asparagines residue (m/z 309) of EGF; purchased R&D Systems
T3 sequence (P01133 971-1023 limits assumed): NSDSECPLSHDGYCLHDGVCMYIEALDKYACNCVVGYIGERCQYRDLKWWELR
Protocol: as §1, §2

[3] = test system: EGF receptor phosphorylation in BPH cells; conditions: EGF pre-incubated with ITC, compared to EGF alone
[4] = test system: TGFβ1/Smad mediated transcription
Protocol: Cells were seeded into complete growth medium in a six-well tissue culture dish for 24 h, after which the medium was replaced with low serum medium (0.5% FCS) containing one of three treatments: (1) TGFβ1 (to achieve a final concentration of 2 ng ml^−1) in PBS buffer, (2) TGFβ1^+10 mM DTT in PBS buffer (3) TGFβ1^+2 μM SF in PBS buffer. To simulate SF pharmacokinetics, all test samples were incubated at 37° C. for 30 minutes prior to dialysis, performed in PBS buffer for 4 hours using Slide-A-Lyzer Dialysis Cassettes MWCO 3.5K (PIERCE). Dialysis reduced SF concentration to 34 nM. As additional controls, cells were treated with PBS without TGFβ1 and PBS with SF (34 nM). The luciferase activity was determined 16 h following treatment using the Luciferase Reporter Gene assay (Roche Applied Science) in a Perkin Elmer Wallac Victor 2 1420 multilabel counter plate reader (Perkin Elmer). Briefly, cells were washed twice with PBS and lysed in cell lysis buffer supplied with the assay. Chemiluminescence was immediately quantified following the addition of luciferase assay substrate. Luciferase values were normalized to protein concentration quantified using the BCA assay (Sigma-Aldrich). The experiment was repeated four times, with three replicates of each treatment per experiment. Statistical analysis was performed using 1-way ANOVA with the statistical software, R [24].

Protocol for pAKT in PC-3 cells: BPH-1 or PC-3 cells were cultured in 10 cm cell culture dishes or 6-well culture plates until they reached 80% confluency and were lifter using TE buffer (10 mM Tris/HCl, 1 mM EDTA, pH8). After 24 h treatment with SF cells were washed three times with cold PBS and treated with RIPA buffer for 2 min on ice, followed by centrifugation at 13 000 g at 4° C. for 10 min and the supernatant collected for western blotting. Protein was separated on NuPage 10% polyacrylamide gels by electrophoresis and transferred to nitrocellulose membranes. Membranes were probed with primary antibodies obtained from Cell Signalling© at a dilution of 1:1000: Phospho-Akt (Ser^473) Rabbit mAb (#4060 L) and AKT (pan) Rabbit rnAb (#4685). GAPDH was used as a loading control for all blots. Proteins were visualised with SuperSignal West Chemiluminescence kit.

In the case of C[S+]([O-])CCCN=C=S (stereo not shown) [IB, iberin], the “conjugate of peptide and ITC (insulin)” value (bovine insulin) is reported as “formation of a covalently bound conjugate”, the “conjugate of peptide and ITC (TGFβ1)” value [1] is reported as “formation of a covalently bound conjugate” and the “conjugate of peptide and ITC (EGF)” value [2] is reported as “formation of a covalently bound conjugate”.
In the case of C[S+]([O-])CCCCN=C=S (stereo not shown) [SF, sulforaphane], the “conjugate of peptide and ITC (insulin)” value (bovine insulin) is reported as “formation of a covalently bound conjugate”, the pAKT expression (pAKT in PC-3 cells; PC-3 cells + FCS, 2 μM SF, one hour) is reported as “suppresses pAKT” and the pAKT expression (pAKT in PC-3 cells; PC-3 cells + FCS, 10 μM SF) is reported as “variable response”. The pAKT expression (pAKT in PC-3 cells; PC-3 cells in culture medium without FCS) was “no further inhibition”, the pAKT expression (pAKT in PC-3 cells; PC-3 cells, 0.5 μM SF (data not shown)) was “suppression” and the “conjugate of peptide and ITC (TGFβ1)” value [1] was “formation of a covalently bound conjugate”. The “conjugate of peptide and ITC (EGF)” value [2] was “formation of a covalently bound conjugate”, the “amount of phosphorylated EGF receptor” value [3] was “reduces the amount of phosphorylated receptor” and the “Smad-mediated transcription (luciferase activity)” value ([4]; TGFβ1 pre-incubated with SF (2 μM) for 30 minutes followed by dialysis, compared to TGFβ1 alone) was “increase in Smad-mediated transcription”. The “Smad-mediated transcription (luciferase activity)” value ([4]; residual SF (34 nM) alone, without TGFβ1) was “did not result in enhanced transcription”.
